Measured values reported in patent publication US20230233569A1 (Revolution Medicines, Inc., priority 2020, published 2023).

Legend:
[1] = tested on: P70S6K (Thr389) phosphorylation (mTORC1) in MDA-MB-468 cells; test: Cell based AlphaLISA assay, mTOR kinase cellular assay: inhibition of p-P70S6K (T389) in MDA-MB-468 cells; settings: Homo sapiens, read-out: pIC50 for Inhibition of mTORC1 and mTORC2 Substarte Phosphorylation p-P70S6K-(T389) (converted)
Protocol: Cell Based AlphaLISA Assays for Determining IC50 For Inhibition of P-Akt (S473), P-4E-BP1 (T37/46), and P-P70S6K (T389) in MDA-MB-468 Cells
mTOR Kinase Cellular Assay
To measure functional activity of mTORC1 and mTORC2 in cells the phosphorylation of 4EBP1 (Thr37/46) and P70S6K (Thr389), and AKT1/2/3 (Ser473) was monitored using AlphaLisa SureFire Ultra Kits (Perkin Elmer). MDA-MB-468 cells (ATCC® HTB-132) were cultured in 96-well tissue culture plates and treated with compounds in the disclosure at concentrations varying from 0.017-1,000 nM for two to four hours at 37° C. Incubations were terminated by removal of the assay buffer and addition of lysis buffer provided with the assay kit. Samples were processed according to the manufacturer's instructions. The Alpha signal from the respective phosphoproteins was measured in duplicate using a microplate reader (Envision, Perkin-Elmer or Spectramax M5, Molecular Devices). Inhibitor concentration response curves were analyzed using normalized IC50 regression curve fitting with control based normalization.

[2] = tested on: 4EBP1 (Thr37/46) phosphorylation (mTORC1) in MDA-MB-468 cells; test: Cell based AlphaLISA assay, mTOR kinase cellular assay: inhibition of p-4E-BP1 (T37/46) in MDA-MB-468 cells; settings: Homo sapiens, read-out: pIC50 for Inhibition of mTORC1 and mTORC2 Substarte Phosphorylation p-4E-BP1-(T37/46) (converted)
How it was run: (§1)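 MDA-MB-468 cells treated with compound at 0.017-1,000 nM for two to four hours at 37° C, then lysed. Phospho-AKT1/2/3 S473, 4EBP1 T37/46 and P70S6K T389 quantified by AlphaLISA SureFire Ultra in duplicate; IC50 from normalized regression with control-based normalization.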

[3] = tested on: AKT1/2/3 (Ser473) phosphorylation (mTORC2) in MDA-MB-468 cells; test: Cell based AlphaLISA assay, mTOR kinase cellular assay: inhibition of p-Akt (S473) in MDA-MB-468 cells; settings: Homo sapiens, read-out: pIC50 for Inhibition of mTORC1 and mTORC2 Substarte Phosphorylation p-AKT1/2/3-(S473) (converted)
How it was run: as §1

CO[C@H]1C[C@@H]2CC[C@@H](C)[C@@](O)(O2)C(=O)C(=O)N2CCCC[C@H]2C(=O)O[C@H]([C@H](C)C[C@@H]2CC[C@@H](OC(=O)NCCOCCOCCOCCOCCOCCC(=O)NCCOCCOCCOCCOCCOCCC(=O)N3CCc4cc(Cn5nc(-c6cnc7[nH]ccc7c6)c6c(N)ncnc65)ccc4C3)[C@H](OC)C2)CC(=O)[C@H](C)/C=C(\C)[C@@H](O)[C@@H](OC)C(=O)[C@H](C)C[C@H](C)/C=C/C=C/C=C/1C [Example 21] showed an IC50 [1] of at most 1 nM, an IC50 [2] of at most 3.16 nM and an IC50 [3] of 31.6 to 1000 nM.

Compound CO[C@H]1C[C@@H]2CC[C@@H](C)[C@@](O)(O2)C(=O)C(=O)N2CCCC[C@H]2C(=O)O[C@H]([C@H](C)C[C@@H]2CC[C@@H](OC(=O)NCc3cnc(N4CCN(c5ncc(C(=O)NCCOCCOCCOCCOCCC(=O)N6CCc7cc(Cn8nc(-c9ccc%10oc(N)nc%10c9)c9c(N)ncnc98)ccc7C6)cn5)CC4)nc3)[C@H](OC)C2)CC(=O)[C@H](C)/C=C(\C)[C@@H](O)[C@@H](OC)C(=O)[C@H](C)C[C@H](C)/C=C/C=C/C=C/1C [Example 27] has an IC50 [1] of at most 1 nM, an IC50 [2] of at most 3.16 nM and an IC50 [3] of 3.16 to 31.6 nM.

CO[C@H]1C[C@@H]2CC[C@@H](C)[C@@](O)(O2)C(=O)C(=O)N2CCCC[C@H]2C(=O)O[C@H]([C@H](C)C[C@@H]2CC[C@@H](OC(=O)NCc3cnc(N4CCN(c5ncc(C(=O)NCCOCCOCCOCCOCCC(=O)N6CCc7cc(Cn8nc(-c9ccc%10oc(N)nc%10c9)c9c(N)ncnc98)ccc7C6)cn5)CC4)nc3)[C@H](OC)C2)C[C@@H](O)[C@H](C)/C=C(\C)[C@@H](O)[C@@H](OC)C(=O)[C@H](C)C[C@H](C)/C=C/C=C/C=C/1C [Example 28] gave an IC50 [1] of at most 1 nM, an IC50 [2] of at most 3.16 nM and an IC50 [3] of over 1000 nM.

In the case of CO[C@H]1C[C@@H]2CC[C@@H](C)[C@@](O)(O2)C(=O)C(=O)N2CCCC[C@H]2C(=O)O[C@H]([C@H](C)C[C@@H]2CC[C@@H](OC(=O)NCc3cnc(N4CCN(c5ncc(C(=O)NCCOCCOCCOCCOCCC(=O)N6CCc7cc(Cn8nc(-c9ccc%10oc(N)nc%10c9)c9c(N)ncnc98)ccc7C6)cn5)CC4)nc3)[C@H](OC)C2)C[C@@H](OC)[C@H](C)/C=C(\C)[C@@H](O)[C@@H](OC)C(=O)[C@H](C)C[C@H](C)/C=C/C=C/C=C/1C [Example 29], the IC50 [1] is reported as at most 1 nM, the IC50 [2] is reported as at most 3.16 nM and the IC50 [3] is reported as over 1000 nM.

CO[C@H]1C[C@@H]2CC[C@@H](C)[C@@](O)(O2)C(=O)C(=O)N2CCCC[C@H]2C(=O)O[C@H]([C@H](C)C[C@@H]2CC[C@@H](OC(=O)NCc3cnc(N4CCN(c5ncc(C(=O)NCCOCCOCCC(=O)N6CCc7cc(Cn8nc(-c9ccc%10oc(N)nc%10c9)c9c(N)ncnc98)ccc7C6)cn5)CC4)nc3)[C@H](OC)C2)CC(=O)[C@H](C)/C=C(\C)[C@@H](O)[C@@H](OC)C(=O)[C@H](C)C[C@H](C)/C=C/C=C/C=C/1C [Example 31] showed an IC50 [1] of at most 1 nM, an IC50 [2] of at most 3.16 nM and an IC50 [3] of 3.16 to 31.6 nM.

CO[C@H]1C[C@@H]2CC[C@@H](C)[C@@](O)(O2)C(=O)C(=O)N2CCCC[C@H]2C(=O)O[C@H]([C@H](C)C[C@@H]2CC[C@@H](OC(=O)NCc3cnc(N4CCN(c5ncc(C(=O)NCCOCCOCCOCCOCCC(=O)NCCCCn6nc(-c7cnc8[nH]ccc8c7)c7c(N)ncnc76)cn5)CC4)nc3)[C@H](OC)C2)CC(=O)[C@H](C)/C=C(\C)[C@@H](O)[C@@H](OC)C(=O)[C@H](C)C[C@H](C)/C=C/C=C/C=C/1C [Example 32] was tested, and the IC50 [1] was at most 1 nM, the IC50 [2] was at most 3.16 nM and the IC50 [3] was 3.16 to 31.6 nM.

For CO[C@H]1C[C@@H]2CC[C@@H](C)[C@@](O)(O2)C(=O)C(=O)N2CCCC[C@H]2C(=O)O[C@H]([C@H](C)C[C@@H]2CC[C@@H](OC(=O)NCc3cnc(N4CCN(c5ncc(C(=O)NCCOCCOCCOCCOCCC(=O)N6CCc7cc(Cn8nc(-c9cnc%10[nH]ccc%10c9)c9c(N)ncnc98)ccc7C6)cn5)CC4)nc3)[C@H](OC)C2)CC(=O)[C@H](C)/C=C(\C)[C@@H](O)[C@@H](OC)C(=O)[C@H](C)C[C@H](C)/C=C/C=C/C=C/1C [Example 33], the IC50 [1] was at most 1 nM, the IC50 [2] was at most 3.16 nM and the IC50 [3] was over 1000 nM.

With CO[C@H]1C[C@@H]2CC[C@@H](C)[C@@](O)(O2)C(=O)C(=O)N2CCCC[C@H]2C(=O)O[C@H]([C@H](C)C[C@@H]2CC[C@@H](OC(=O)N(C)Cc3cnc(N4CCN(c5ncc(C(=O)NCCOCCOCCOCCOCCC(=O)N6CCc7cc(Cn8nc(-c9cnc%10[nH]ccc%10c9)c9c(N)ncnc98)ccc7C6)cn5)CC4)nc3)[C@H](OC)C2)CC(=O)[C@H](C)/C=C(\C)[C@@H](O)[C@@H](OC)C(=O)[C@H](C)C[C@H](C)/C=C/C=C/C=C/1C [Example 34] the IC50 [1] was at most 1 nM, the IC50 [2] was over 1000 nM and the IC50 [3] was over 1000 nM.

For CO[C@H]1C[C@@H]2CC[C@@H](C)[C@@](O)(O2)C(=O)C(=O)N2CCCC[C@H]2C(=O)O[C@H]([C@H](C)C[C@@H]2CC[C@@H](OC(=O)N3CCc4nc(N5CCN(c6ncc(C(=O)NCCOCCOCCOCCOCCC(=O)NCCCCn7nc(-c8cnc9[nH]ccc9c8)c8c(N)ncnc87)cn6)CC5)ncc4C3)[C@H](OC)C2)CC(=O)[C@H](C)/C=C(\C)[C@@H](O)[C@@H](OC)C(=O)[C@H](C)C[C@H](C)/C=C/C=C/C=C/1C [Example 35], the IC50 [1] was at most 1 nM, the IC50 [2] was at most 3.16 nM and the IC50 [3] was 3.16 to 31.6 nM.

Compound CO[C@H]1C[C@@H]2CC[C@@H](C)[C@@](O)(O2)C(=O)C(=O)N2CCCC[C@H]2C(=O)O[C@H]([C@H](C)C[C@@H]2CC[C@@H](OC(=O)N3CCc4nc(N5CCN(c6ncc(C(=O)NCCOCCOCCOCCOCCC(=O)N7CCc8cc(Cn9nc(-c%10cnc%11[nH]ccc%11c%10)c%10c(N)ncnc%109)ccc8C7)cn6)CC5)ncc4C3)[C@H](OC)C2)CC(=O)[C@H](C)/C=C(\C)[C@@H](O)[C@@H](OC)C(=O)[C@H](C)C[C@H](C)/C=C/C=C/C=C/1C [Example 36] has an IC50 [1] of at most 1 nM, an IC50 [2] of at most 3.16 nM and an IC50 [3] of over 1000 nM.

With CO[C@H]1C[C@@H]2CC[C@@H](C)[C@@](O)(O2)C(=O)C(=O)N2CCCC[C@H]2C(=O)O[C@H]([C@H](C)C[C@@H]2CC[C@@H](OC(=O)N3CCN(c4ncc(C(=O)NCCOCCOCCOCCOCCOCCC(=O)N5CCc6cc(Cn7nc(-c8cnc9[nH]ccc9c8)c8c(N)ncnc87)ccc6C5)cn4)CC3)[C@H](OC)C2)CC(=O)[C@H](C)/C=C(\C)[C@@H](O)[C@@H](OC)C(=O)[C@H](C)C[C@H](C)/C=C/C=C/C=C/1C [Example 37] the IC50 [1] was at most 1 nM, the IC50 [2] was at most 3.16 nM and the IC50 [3] was over 1000 nM.

CO[C@H]1C[C@@H]2CC[C@@H](C)[C@@](O)(O2)C(=O)C(=O)N2CCCC[C@H]2C(=O)O[C@H]([C@H](C)C[C@@H]2CC[C@@H](OC(=O)N3CCc4nc(N5CCN(CCOCCOCCOCCOCCOCCC(=O)N6CCc7cc(Cn8nc(-c9cnc%10[nH]ccc%10c9)c9c(N)ncnc98)ccc7C6)CC5)ncc4C3)[C@H](OC)C2)CC(=O)[C@H](C)/C=C(\C)[C@@H](O)[C@@H](OC)C(=O)[C@H](C)C[C@H](C)/C=C/C=C/C=C/1C [Example 38] showed an IC50 [1] of at most 1 nM, an IC50 [2] of over 1000 nM and an IC50 [3] of over 1000 nM.

CO[C@H]1C[C@@H]2CC[C@@H](C)[C@@](O)(O2)C(=O)C(=O)N2CCCC[C@H]2C(=O)O[C@H]([C@H](C)C[C@@H]2CC[C@@H](OC(=O)N3CCc4nc(N5CCN(c6ncc(C(=O)NCCOCCOCCOCCOCCC(=O)N7CCc8cc(Cn9nc(-c%10ccc%11oc(N)nc%11c%10)c%10c(N)ncnc%109)ccc8C7)cn6)CC5)ncc4C3)[C@H](OC)C2)CC(=O)[C@H](C)/C=C(\C)[C@@H](O)[C@@H](OC)C(=O)[C@H](C)C[C@H](C)/C=C/C=C/C=C/1C [Example 39] showed an IC50 [1] of at most 1 nM, an IC50 [2] of at most 3.16 nM and an IC50 [3] of at most 3.16 nM.
